Laboratory results: ChEMBL document CHEMBL3351493, “Beta-aminoketones as prodrugs for selective irreversible inhibitors of type-1 methionine aminopeptidases” (Bioorg Med Chem Lett, 2014)
The source made the active and inactive calls. No cut-off for these calls is given here.

What was measured:
[1] = biological target: T1, Methionine aminopeptidase (Escherichia coli K-12, UniProt P0AE18); assay: Inhibition of C-terminal poly-His-tagged Escherichia coli MetAP expressed in Escherichia coli BL21(DE3) incubated for 30 mins before MGMM substrate addition by fluorescence assay
T1 sequence (P0AE18 whole entry): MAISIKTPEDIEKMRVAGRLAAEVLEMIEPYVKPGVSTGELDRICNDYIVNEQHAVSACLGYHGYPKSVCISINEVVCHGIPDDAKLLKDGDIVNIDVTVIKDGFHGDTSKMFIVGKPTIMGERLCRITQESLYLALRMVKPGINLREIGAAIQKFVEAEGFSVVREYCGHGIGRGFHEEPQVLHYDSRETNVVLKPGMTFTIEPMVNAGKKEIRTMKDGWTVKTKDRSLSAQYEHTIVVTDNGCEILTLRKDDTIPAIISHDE

[2] = biological target: Methionine aminopeptidase (Staphylococcus aureus (strain COL), UniProt Q5HEN6); assay: Inhibition of N-terminal poly-His-tagged Staphylococcus aureus COL MetAP expressed in Escherichia coli BL21(DE3) incubated for 30 mins before MGMM substrate addition by fluorescence assay; parameters: species or system Staphylococcus aureus subsp. aureus COL
Escherichia coli = assay: Antimicrobial activity against Escherichia coli BL21(DE3) assessed as inhibition of bacterial growth at 200 uM incubated at 37 degC for 7 hrs; assay type: functional; conditions: for inhibition at 200 µM: BL21-DE3, 7 h
[3] = Half life assessed as decomposition into amines and unsaturated ketones at 250 uM in 50 mM Tris/maleate pH 7.5 buffer by HPLC method; assay type: physicochemical; conditions: Tris/maleate buffer, pH 7.5
HaCaT = assay: Cytotoxicity against human HaCaT cells at 1.6 to 100 ug/ml after 72 hrs by crystal violet assay; assay type: cell-based
[4] = Cytotoxicity against human Flow 2002 cells at 1.6 to 100 ug/ml after 72 hrs by crystal violet assay; assay type: cell-based; conditions: flow 2002, 72 h
A 172 = assay: Cytotoxicity against human A172 cells at 1.6 to 100 ug/ml after 72 hrs by crystal violet assay; assay type: functional, cell-based
CAPAN-1 = assay: Cytotoxicity against human Capan1 cells at 1.6 to 100 ug/ml after 72 hrs by crystal violet assay; assay type: functional, cell-based
Ca-Ski = assay: Cytotoxicity against human CaSki cells at 1.6 to 100 ug/ml after 72 hrs by crystal violet assay; assay type: functional, cell-based
SW707 = assay: Cytotoxicity against human SW707 cells at 1.6 to 100 ug/ml after 72 hrs by crystal violet assay; assay type: functional, cell-based
Calu-6 = assay: Cytotoxicity against human Calu6 cells at 1.6 to 100 ug/ml after 72 hrs by crystal violet assay; assay type: functional, cell-based
MeWo = assay: Cytotoxicity against human MeWo cells at 1.6 to 100 ug/ml after 72 hrs by crystal violet assay; assay type: functional, cell-based
BT-474 = assay: Cytotoxicity against human BT474 cells at 1.6 to 100 ug/ml after 72 hrs by crystal violet assay; assay type: functional, cell-based
A-431 = assay: Cytotoxicity against human A431 cells at 1.6 to 100 ug/ml after 72 hrs by crystal violet assay; assay type: functional, cell-based
[5] = biological target: Methionine aminopeptidase 2 (Homo sapiens, UniProt P50579); conditions: sf9
Methionine aminopeptidase 2, sequence (P50579 whole entry): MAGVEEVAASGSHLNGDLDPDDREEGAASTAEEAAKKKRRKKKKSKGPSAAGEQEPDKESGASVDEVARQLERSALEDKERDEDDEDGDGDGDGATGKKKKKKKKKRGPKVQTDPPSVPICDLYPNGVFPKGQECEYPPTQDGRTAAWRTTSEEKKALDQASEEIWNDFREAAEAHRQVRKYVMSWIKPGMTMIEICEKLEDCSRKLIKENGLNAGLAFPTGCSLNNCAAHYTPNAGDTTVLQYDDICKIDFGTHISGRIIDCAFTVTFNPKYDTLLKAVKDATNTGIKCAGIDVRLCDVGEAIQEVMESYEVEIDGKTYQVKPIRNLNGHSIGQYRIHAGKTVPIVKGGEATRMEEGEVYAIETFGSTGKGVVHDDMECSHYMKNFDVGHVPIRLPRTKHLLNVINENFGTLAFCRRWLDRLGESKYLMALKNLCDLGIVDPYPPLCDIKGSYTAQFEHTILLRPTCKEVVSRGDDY
Description: Inhibition of human MetAP-2 expressed in Sf9 cells incubated for 60 mins before MGMM substrate addition by fluorescence assay

[6] = biological target: Methionine aminopeptidase 1 (Homo sapiens, UniProt P53582); assay: Inhibition of N-terminal poly-His-tagged human MetAP-1 expressed in Escherichia coli BL21(DE3) incubated for 30 mins before MGMM substrate addition by fluorescence assay

IC50 ([1]; read-out: IC50) | IC50 ([2]; read-out: IC50) | half-life at 250 µM [3] | IC50 [5] | Structure (SMILES) | inhibition at 200 µM (Escherichia coli) | Activity (HaCaT) | Activity [4] | Activity (A 172) | Activity (CAPAN-1) | Activity (Ca-Ski) | Activity (SW707) | Activity (Calu-6) | Activity (MeWo) | Activity (BT-474) | Activity (A-431) | IC50 [1] | IC50 [2] | IC50 [6] | inhibition (Escherichia coli)
720 nM | 7800 nM | 6 min | Not Active | CN(C)CC1Cc2cc(Br)ccc2C1=O.Cl (stereo unspecified) | 57% | Toxic | Toxic | Active | Active | Active | Active | Active | Active | Active | Active | – | – | – | –
3100 nM | 25000 nM | 16 min | Not Active | Cl.O=C1c2ccccc2CC1CN1CCCCC1 (stereo unspecified) | 50% | Toxic | Toxic | Active | Active | Active | Active | Active | Active | Active | Active | – | – | – | –
840 nM | 7000 nM | 7 min | Not Active | CN(C)CC1Cc2cc(Cl)ccc2C1=O.Cl (stereo unspecified) | 71% | Toxic | Toxic | Active | Active | Active | Active | Active | Active | Active | Active | – | – | – | –
800 nM | – | – | Not Active | C=C1Cc2ccc(C)cc2C1=O | – | Toxic | Toxic | Active | Active | Active | Active | Active | Active | Active | Active | – | – | – | –
2800 nM | 26000 nM | 10 min | Not Active | CN(C)CC1Cc2ccccc2C1=O.Cl (stereo unspecified) | 90% | Toxic | Toxic | Active | Active | Active | Active | Active | Active | Active | Active | – | – | – | –
830 nM | 17000 nM | 12 min | Not Active | COc1ccc2c(c1)C(=O)C(CN(C)C)C2.Cl (stereo unspecified) | 19% | Toxic | Toxic | Active | Active | Active | Active | Active | Active | Active | Active | – | – | – | –
670 nM | – | – | Not Active | C=C1Cc2ccc(OC)cc2C1=O | – | Toxic | Toxic | Active | Active | Active | Active | Active | Active | Active | Active | – | – | – | –
400 nM | 13300 nM | – | Not Active | C=C1Cc2cc(C)ccc2C1=O | 100% | Toxic | Toxic | Active | Active | Active | Active | Active | Active | Active | Active | – | – | – | –
980 nM | – | – | Not Active | C=C1Cc2cc(OC)ccc2C1=O | – | Toxic | Toxic | Active | Active | Active | Active | Active | Active | Active | Active | – | – | – | –
230 nM | – | – | Not Active | C=C1Cc2cc(Cl)ccc2C1=O | 27% | Toxic | Toxic | Active | Active | Active | Active | Active | Active | Active | Active | – | – | – | –
1100 nM | 32000 nM | 24 min | Not Active | Cc1ccc2c(c1)CC(CN(C)C)C2=O.Cl (stereo unspecified) | 100% | Toxic | Toxic | Active | Active | Active | Active | Active | Active | Active | Active | – | – | – | –
7000 nM | 46000 nM | 1730 min | Not Active | CN(C)CC1Cc2c(cccc2C(F)(F)F)C1=O.Cl (stereo unspecified) | 22% | Toxic | Toxic | Active | Active | Active | Active | Active | Active | Active | Active | – | – | – | –
2000 nM | 42100 nM | 45 min | Not Active | COc1ccc2c(c1)CC(CN(C)C)C2=O.Cl (stereo unspecified) | 35% | Toxic | Toxic | Active | Active | Active | Active | Active | Active | Active | Active | – | – | – | –
700 nM | 15000 nM | 14 min | Not Active | Cc1ccc2c(c1)C(=O)C(CN(C)C)C2.Cl (stereo unspecified) | 45% | Toxic | Toxic | Active | Active | Active | Active | Active | Active | Active | Active | – | – | – | –
190 nM | – | – | Not Active | C=C1Cc2cc(Br)ccc2C1=O | 21% | Toxic | Toxic | Active | Active | Active | Active | Active | Active | Active | Active | – | – | – | –

Structure (SMILES) | IC50 ([1]; read-out: IC50) | IC50 ([2]; read-out: IC50) | half-life at 250 µM [3] | IC50 [5] | inhibition at 200 µM (Escherichia coli) | Activity (HaCaT) | Activity [4] | Activity (A 172) | Activity (CAPAN-1) | Activity (Ca-Ski) | Activity (SW707) | Activity (Calu-6) | Activity (MeWo) | Activity (BT-474) | Activity (A-431) | IC50 [1] | IC50 [2] | IC50 [6] | inhibition (Escherichia coli)
COc1ccc(C(=O)CCN2CCCCC2)cc1.Cl | – | – | – | Not Active | – | Toxic | Toxic | Active | Active | Active | Active | Active | Active | Active | Active | Not Active | Not Active | Not Active | inactive
CN(C)CCC(=O)c1ccccc1.Cl | – | – | – | Not Active | – | Toxic | Toxic | Active | Active | Active | Active | Active | Active | Active | Active | Not Active | Not Active | Not Active | inactive
